Results on five molecules are retold here after PMC5923485 (Viruses, 2018).

The test system of one series is RVFV MP12 ∆NSs-Luc. Description: microbe, parasite or virus in culture. Format: cell-based, Rift Valley fever virus. To be noted: for inhibition at 100 µM: read-out: inhibition of RVFV MP12-luc.
The test system of a further series is RVFV MP12. In kind it is cell-based, Rift Valley fever virus.
Series [1] has as its system S6 ribosomal protein (Ser235/236) phosphorylation and RVFV NP. In kind it is cell-based, mouse.
A further series in a line: in vitro. To be noted: mouse.
Another series relates to RVFV. To be noted: mouse, in vivo; cited from earlier work.

Read-outs that look alike come from different tables or passages of the source. A value given as a limit tells only on which side of the number the result lay.

With `CC(C)CCN1c2nc(Nc3cc(F)c(O)c(F)c3)ncc2N(C)C(=O)C1C` (centres unmarked) [BI-D1870], in the series on RVFV MP12 ∆NSs-Luc, the “effect of increasing drug concentration on viral replication (luciferase)” value is given as “viral replication increased”. Moreover, the “increase of infectious viral titer” value with RVFV MP12 is reported as “approximately 0.5 log”. In series [1], the “levels of RVFV NP” value is reported as “modestly increased” and the “phosphorylation of S6 ribosomal protein (Ser 235/236)” value (from here on “phosphorylation”) was “no apparent change”.

As a reminder, the EC50 is the midpoint of the concentration-response curve. The inhibition is the relative decrease from the control value, in per cent. Take `O=C(NOC[C@H](O)CO)c1ccc(F)c(F)c1Nc1ccc(I)cc1F` [PD0325901]: the EC50 in the series on RVFV MP12 ∆NSs-Luc (Rift Valley fever virus, 18 h) is over 50 µM. In the series with RVFV MP12 ∆NSs-Luc (Rift Valley fever virus), the inhibition at 100 µM amounted to 52%. In addition, in the series with RVFV MP12, the “effect on RVFV titers” value is listed as “minimal inhibition”. For the same molecule, in series [1], the “levels of RVFV NP” value is “minimal inhibition” and the “phosphorylation” value was “minimal inhibition”. Moreover, the decrease in viability with H2.35 cells (mouse) is given as ~ 20%. The same molecule had a CC50 in “in vitro” of over 100 µM.

Regarding `CCc1cncnc1N1CCN(Cc2nc3ccc(C(F)(F)F)cc3[nH]2)CC1` [PF-4708671], in the series on RVFV MP12 ∆NSs-Luc (read-out: EC50), the EC50 amounted to 17 µM. Also, in series [1], the “levels of RVFV NP” value is “decreased” and the “phosphorylation” value is “decreased phosphorylation”. For the same molecule, the CC50 with H2.35 cells was over 50 µM.

Molecule `CO[C@H]1C[C@@H]2CC[C@@H](C)[C@@](O)(O2)C(=O)C(=O)N2CCCC[C@H]2C(=O)O[C@H]([C@H](C)C[C@@H]2CC[C@@H](O)[C@H](OC)C2)CC(=O)[C@H](C)/C=C(\C)[C@@H](O)[C@@H](OC)C(=O)[C@H](C)C[C@H](C)/C=C/C=C/C=C/1C` [Rapamycin] came in with an EC50 with RVFV MP12 ∆NSs-Luc (Rift Valley fever virus, 18 h) of 18 µM. In series [1], the “levels of RVFV NP” value is listed as “markedly decreased” and the “phosphorylation” value is “markedly decreased”. Besides, in the series with RVFV, the “protection from RVFV induced pathogenesis” value is given as “protects mice”. This molecule also came in with a CC50 in the series “in vitro” of over 100 µM.

In the case of `C[S+]([O-])c1ccc(-c2nc(-c3ccncc3)c(-c3ccc(F)cc3)[nH]2)cc1` (centres unmarked) [SB203580], the inhibition at 100 µM in the series on RVFV MP12 ∆NSs-Luc (Rift Valley fever virus) is 45%. In addition, the “effect on RVFV titers” value in the series with RVFV MP12 was “minimal inhibition”. In series [1], the “levels of RVFV NP” value is “minimal inhibition” and the “phosphorylation” value was “minimal inhibition”. For the same molecule, in the series on H2.35 cells, the cell toxicity entry is reported as “no appreciable cell toxicity”. Besides, the CC50 in “in vitro” is over 100 µM.
